From patent US20170158671A1, “PYRIMIDINE COMPOSITIONS, ULTRA PURE COMPOSITIONS AND SALTS THEREOF, METHODS OF MAKING THE SAME, AND METHODS OF USING THE SAME FOR TREATING HISTAMINE H4 RECEPTOR (H4) MEDIATED DISEASES AND CONDITIONS” (Ziarco Pharma Ltd., priority 2015, published 2017)

Tests used:
[1] = Salt screen: HT-XRPD after accelerated aging conditions; type: physicochemical; conditions: solid form by HT-XRPD after 40° C., 75% RH for two days, code+number = crystalline salt polymorph, 0 = crystalline counter ion itself
Experimental: XRPD patterns were obtained using the Crystallics T2 high-throughput XRPD set-up. The plates were mounted on a Bruker General Area Detector Diffraction System (GADDS) equipped with a VÅNTEC-500 gas area detector corrected for intensity and geometric variations. The calibration of the measurement accuracy (peaks position) was performed using NIST SRM1976 standard (Corundum).
Data collection was carried out at room temperature using monochromatic CuKα radiation in the 2θ region between 1.5° and 41.5°, which is the most distinctive part of the XRPD pattern. The diffraction pattern of each well was collected in two 2θ ranges (1.5°≦2θ≦21.5° for the first frame, and 19.5°≦2θ≦41.5° for the second) with an exposure time of 90 s for each frame. No background subtraction or curve smoothing was applied to the XRPD patterns.
Approximately 175 mg of N^4-(cyclopropylmethyl)-6-[(3R)-3-(methylamino)pyrrolidin-1-yl]pyrimidine-2,4-diamine in 1-Butanol and Dichloromethane were combined with a slight molar excess of either solid or liquid counter ion. Samples were incubated at RT. After 5 days the solids were collected, dried under vacuum and analyzed by HT-XRPD (XRPD 1).
Subsequently, the solids were exposed to accelerated aging conditions (40° C., 75% RH) for two days and re-analyzed by HT-XRPD (XRPD 2). Crystalline salts (polymorphs) are indicated with the abbreviated counter ion code and a number (1, 2, etc.). The number zero (0) indicates the crystalline counter ion itself.

[2] = as above; type: physicochemical; conditions: 14 counter ions tested; only hydrochloric acid gave such a salt
[3] = system: adult subjects with moderate to severe atopic dermatitis; experiment: Phase 2a study in moderate to severe atopic dermatitis; type: in vivo, human
Experimental: Following the phase 1 trials, a phase 2a trial was conducted to evaluate the efficacy of 8 weeks of treatment with 30 mg ZPL-389 administered once daily in adult subject with moderate to severe atopic dermatitis. The study was also designed to assess the safety and tolerability of ZPL-389 in adult subjects with moderate to severe atopic dermatitis.
This study was a randomized, double blind, placebo controlled, parallel group study of subjects having a pruritus Numerical Rating Scale (NRS) of ≧5 (0-10 scale), an Investigator's Global Assessment (IGA) ≧3 (0-3 scale), and moderate-severe AD Eczema Area and Severity Index (EASI) ≧12 and ≦48 (0-72 scale). In addition, subjective patient reported outcome instruments include: Ziarco Itch Diary (Electronic) Pruritus; 5D Pruritus Scale; Dermatology Life Quality Index (DLQI); and Patient Global Impression of Change (PGIG).
Each subject (aged 18-65 years) had one or more screening visits to confirm suitability to enter the study. 98 subjects with moderate to severe atopic dermatitis were randomized 2:1 to receive orally either 30 mg ZPL-389 or placebo once daily for eight weeks (56 days).
Efficacy endpoints for the trial include the following: • change from baseline in NRS for pruritus (worst itch) over 24 hours; • change from baseline in daytime NRS for pruritus (worst itch); • change from baseline in night time NRS for pruritus (worst itch); • change from baseline in NRS for sleep disturbance; • change from baseline in duration of itching; • change from baseline in verbal rating score for pruritus; • change from baseline in EASI score; • change from baseline in SCORAD score; • IGA score; • amount of rescue medication use; and/or • PGIC.

[4] = Phase 1 trials, single and multiple ascending doses; type: in vivo, human
Experimental: In phase 1 trials, 62 subjects were treated with ZPL-389.

mild asthmatics = conditions: 36 mg in two single doses given 12 hours apart, oral; cited from earlier work
[5] = Dynamic vapor sorption (DVS) analysis; type: physicochemical; conditions: 25° C.
Experimental: Moisture sorption isotherms were collected on a DVS-1 system from Surface Measurement Systems (London, UK). Typical sample size is between 5 and 10 mg of solid material. The relative humidity was cycled between 40% to 0% (desorption), up to 95% (sorption), back to 0% RH (desorption) and up to 95% RH (sorption) in steps of 10% at a constant temperature of 25° C. with an initial stabilizing step at 40% RH for 6 hours.
(FIG. 9) The relative humidity (RH) was cycled between 40% to 0% (desorption), up to 95% (sorption) in steps of 10%. During the desorption, the dehydration step occurs when the RH goes below 10% RH. Water uptake is observed in between 0-20% RH (1.9% mass uptake) and 20-30% (total mass uptake 6.9%).

[6] = 30 mg orally once daily vs placebo
[7] = 30 mg orally once daily, 8 weeks

| Molecule | XRPD 2 ([1]; 1-Butanol) | XRPD 2 ([1]; Dichloromethane) | further results |
| --- | --- | --- | --- |
| Br [Hydrobromic acid] | Amorphous | Amorphous |  |
| O=C(O)CC(O)(CC(=O)O)C(=O)O [Citric acid] | Amorphous | Amorphous |  |
| CC(O)C(=O)O (stereo not drawn) [Lactic acid] | Amorphous | Amorphous |  |
| O=C(O)[C@H](O)[C@@H](O)C(=O)O [(+)-L-Tartaric acid] | Amorphous | Amorphous |  |
| CC(=O)O [Acetic acid] | Amorphous | Amorphous |  |
| CN[C@@H]1CCN(c2cc(NCC3CC3)nc(N)n2)C1.Cl.Cl.O [Example 8, N^4-(cyclopropylmethyl)-6-[(3R)-3-(methylamino)pyrrolidin-1-yl]pyrimidine-2,4-diamine di-hydrochloride hydrate] |  |  | stability of two to one stoichiometric salt [2]: stable |
| CCS(=O)(=O)O [Ethanesulfonic acid] | Amorphous | Amorphous |  |
| O=S(=O)(O)CCS(=O)(=O)O [Ethane-1,2-disulfonic acid] | Eds1 + Eds2 | Eds1 |  |
| O=S(=O)(O)O [Sulfuric acid] | Amorphous | Amorphous |  |
| O=C(O)C(O)c1ccccc1 (racemic) [DL-Mandelic acid] | Amorphous | Amorphous |  |
| (−)-L-Malic acid | Amorphous | Amorphous |  |
| O=C(O)CCCC(=O)O [Glutaric acid] | Glut1 | Glut1 |  |
| O=C[C@H](O)[C@@H](O)[C@H](O)[C@H](O)C(=O)O [D-Glucuronic acid] | Amorphous | Amorphous |  |
| CN[C@@H]1CCN(c2cc(NCC3CC3)nc(N)n2)C1 [ZPL-389, N^4-(cyclopropylmethyl)-6-[(3R)-3-(methylamino)pyrrolidin-1-yl]pyrimidine-2,4-diamine] |  |  | IGA remission odds ratio [3, 6]: 2.71; IGA response odds ratio [3, 6]: 2.51; Treatment Emergent Adverse Events (TEAE) between ZPL-389 and placebo [3, 7]: no differences; inflammation compared to placebo (EASI, SCORAD, BSA) [3, 7]: clinically and statistically significant decrease; subjects with clear or almost clear skin [3, 7]: 19%; tolerability / safety profile ([3]; 30 mg orally once daily, 8 weeks, comparable to placebo): well tolerated; rescue medication use ([3]; 30 mg orally once daily, 8 weeks, vs placebo): lower; IGA reduced by ([3]; 30 mg orally once daily, week 8, placebo 25%): 36%; SCORAD reduced by ([3]; 30 mg orally once daily, week 8, placebo 26%, p=0.004): 41%; EASI reduced by ([3]; 30 mg orally once daily, week 8, placebo 27%, p=0.01): 50%; BSA (Body Surface Area) affected by inflammation change from baseline ([3]; 30 mg orally once daily, week 8, placebo −12%, p=0.044): −18%; pruritus ([3]; 30 mg orally once daily, statistically significant compared to baseline): markedly reduced; absorption ([4]; phase 1 trials): rapidly absorbed; pharmacokinetics (dose proportionality) ([4]; phase 1 trials): dose-proportional; majority of observed adverse events ([4]; single ascending doses 0.01-48 mg, multiple ascending doses 5, 15, 50 mg once daily for 14 days): mild, transient, and non-dose related; tolerability ([4]; single ascending doses 0.01-48 mg, multiple ascending doses 5, 15, 50 mg once daily for 14 days, 62 subjects): safely tolerated; efficacy in mild asthma (mild asthmatics): no efficacy was observed |
| O=C(O)c1cc(O)ccc1O [Gentisic acid] | Gen2 | Gen2 |  |
| O=S(=O)(O)c1ccc2ccccc2c1 [Naphtalene-2-sulfonic acid] | Nap1 + Nap0 | Amorphous |  |
| CS(=O)(=O)O [Methanesulfonic acid] | Amorphous | Amorphous |  |

| Molecule | XRPD 2 ([1]; 1-Butanol) | XRPD 2 ([1]; Dichloromethane) | further results |
| --- | --- | --- | --- |
| O=C(O)c1ccccc1O [Salicylic acid] | Sal1 plus | Amorphous |  |
| N[C@@H](CC(=O)O)C(=O)O [L-Aspartic acid] | Asp0 | Amorphous |  |
| CC(=O)Nc1ccc(C(=O)O)cc1 [4-acetamido-Benzoic acid] | ABen1 + ABen0 | ABen1 + ABen0 |  |
| CCCCCCCCCCCCCCCCCC(=O)O [Stearic acid] | Ste0 + Ste1 | Ste0 + Ste1 |  |
| O=C1O[C@H]([C@@H](O)CO)C(O)=C1O [L-Ascorbic acid] | Amorphous | Amorphous |  |
| Cl [Hydrochloric acid] | Amorphous | Amorphous |  |
| O=C(O)C(=O)O [Oxalic acid] | Oxa3 | Oxa3 |  |
| O=C(O)c1ccccc1 [Benzoic acid] | Ben1 + Ben2 plus | Ben1 + Ben2 plus |  |
| CN[C@@H]1CCN(c2cc(NCC3CC3)nc(N)n2)C1.O.O.O=C(O)C(O)C(O)C(=O)O [Example 4, N^4-(cyclopropylmethyl)-6-[(3R)-3-(methylamino)pyrrolidin-1-yl]pyrimidine-2,4-diamine tartrate dihydrate] |  |  | RH at which the dehydration step occurs during desorption ([5]; DVS desorption): below 10 % RH; Water uptake (mass uptake) between 0-20% RH ([5]; DVS sorption): 1.9%; total mass uptake at 20-30% RH ([5]; DVS sorption): 6.9%; weight between 30-90% RH ([5]; DVS): remains stable |
| O=C(O)CNC(=O)c1ccccc1 [Hippuric acid] | Amorphous | Amorphous |  |
| O=P(O)(O)O [Phosphoric acid] | Pho2 plus | Pho3 |  |
| O=C(O)/C=C/C(=O)O [Fumaric acid] | Amorphous | Fum0 + Fum3 |  |
| N[C@@H](CCC(=O)O)C(=O)O [Glutamic acid] | Gltm0 | Amorphous |  |
| O=C(O)[C@H](O)[C@@H](O)[C@H](O)[C@H](O)CO [Gluconic acid] | Amorphous | Amorphous |  |
| O=S(=O)(O)c1ccccc1 [Benzenesulfonic acid] | Amorphous | Amorphous |  |
| O=C(O)/C=C\C(=O)O [Maleic acid] | Amorphous | Amorphous |  |
| Cc1ccc(S(=O)(=O)O)cc1 [p-Toluenesulfonic acid] | Amorphous | Amorphous |  |
